Reference: Sander's compilation of Henry's law constants (doi:10.1016/0045-6535(88)90028-8)

Test: Henry solubility constant Hcp at 298.15 K (mol/(m3 Pa))
Details: reference: Dunnivant and Elzerman (1988)

For Clc1cccc(-c2cccc(Cl)c2)c1 [3,3'-dichlorobiphenyl], the “Henry solubility constant Hcp” value was 0.042.
For Clc1ccc(-c2ccc(Cl)cc2)cc1 [4,4'-dichlorobiphenyl], the “Henry solubility constant Hcp” value was 0.05.
For Clc1cc(Cl)c(-c2cc(Cl)c(Cl)cc2Cl)cc1Cl [2,2',4,4',5,5'-hexachlorobiphenyl], the “Henry solubility constant Hcp” value was 0.075.
In the case of Clc1cc(Cl)c(-c2ccccc2)c(Cl)c1 [2,4,6-trichlorobiphenyl], the “Henry solubility constant Hcp” value is reported as 0.015.
For Clc1ccc(Cl)c(-c2ccccc2)c1 [2,5-dichlorobiphenyl], the “Henry solubility constant Hcp” value was 0.025.
With Clc1cccc(-c2cccc(Cl)c2Cl)c1Cl [2,2',3,3'-tetrachlorobiphenyl] the “Henry solubility constant Hcp” value was 0.049.
With Clc1ccc(Cl)c(-c2cc(Cl)ccc2Cl)c1 [2,2',5,5'-tetrachlorobiphenyl] the “Henry solubility constant Hcp” value was 0.029.
With Clc1ccc(-c2ccccc2)cc1Cl [3,4-dichlorobiphenyl] the “Henry solubility constant Hcp” value was 0.048.
For Clc1cccc(-c2cc(Cl)ccc2Cl)c1 [2,3',5-trichlorobiphenyl], the “Henry solubility constant Hcp” value was 0.03.
In the case of Clc1cccc(Cl)c1-c1c(Cl)cccc1Cl [2,2',6,6'-tetrachlorobiphenyl], the “Henry solubility constant Hcp” value is reported as 0.018.
In the case of Clc1ccccc1-c1ccccc1Cl [2,2'-dichlorobiphenyl], the “Henry solubility constant Hcp” value is reported as 0.029.
With Clc1ccc(Cl)c(-c2ccccc2Cl)c1 [2,2',5-trichlorobiphenyl] the “Henry solubility constant Hcp” value was 0.026.
In the case of Clc1ccc(-c2ccccc2)c(Cl)c1 [2,4-dichlorobiphenyl], the “Henry solubility constant Hcp” value is reported as 0.028.
For Clc1ccc(-c2ccc(Cl)c(Cl)c2)cc1Cl [3,3',4,4'-tetrachlorobiphenyl], the “Henry solubility constant Hcp” value was 0.1.
With Clc1ccc(Cl)c(-c2cc(Cl)c(Cl)cc2Cl)c1 [2,2',4,5,5'-pentachlorobiphenyl] the “Henry solubility constant Hcp” value was 0.039.
In the case of Clc1cc(Cl)c(-c2c(Cl)cc(Cl)cc2Cl)c(Cl)c1 [2,2',4,4',6,6'-hexachlorobiphenyl], the “Henry solubility constant Hcp” value is reported as 0.013.
